{
  "source": "paper PMC12275099",
  "about": "“VX-445 (elexacaftor) inhibits chloride secretion across human bronchial epithelial cells by directly blocking KCa3.1 channels” (PNAS Nexus, 2025)",
  "target": "T1, KCa3.1 (Homo sapiens, UniProt O15554)",
  "T1 construct": "expressed in transfected cells",
  "assay": "Whole-cell patch-clamp on HEK cells heterologously expressing KCa3.1",
  "assay_type": "cell-based",
  "details": "HEK293, VX-445 10 µM",
  "experimental": "Our Isc results are consistent with VX-445 inhibiting KCa3.1 in HBEs. To directly assess this possibility, we initially carried out whole-cell patch-clamp studies on undifferentiated HBEs. […] Upon application of 10 µM VX-445, a majority of this current was inhibited, averaging 87 ± 4% (n = 3, P < 0.005; Fig. 3B). A summary of the current–voltage (I–V) relationship—normalized to cell capacitance—is shown in Fig. 3C, which also includes the whole-cell I–V in the presence of Tram-34. […] To ensure isolation of KCa3.1 currents and to more fully characterize this VX-445-dependent inhibition of KCa3.1, we utilized HEK cells heterologously expressing KCa3.1 (HEK-KCa3.1). Initially, we confirmed our results from HBEs, using whole-cell recordings, as above. […] In seven experiments, this inhibition averaged 58 ± 7% (P < 0.005). […] It is well recognized that drugs are carried to their targets in the blood bound to albumin, which ranges from 3.4 to 5.4%. Thus, we determined whether VX-445 (10 µM) would inhibit KCa3.1 expressed in HEK cells in the presence of 3.4% albumin. In four experiments, VX-445 inhibited an average of 51 ± 17% of the whole-cell KCa3.1 current, which is not different from that observed in the absence of albumin. To confirm the direct effect of VX-445 on KCa3.1, we utilized the excised, inside-out patch-clamp technique. The patch was then exposed to DCEBIO (100 µM) to further activate the channels ([34–37])—analogous to our Isc studies in HBEs. […] In three experiments, VX-445 inhibited an average of 63 ± 6% of the KCa3.1 current. Based on these experiments, we determined the apparent inhibitory constant, Ki for VX-445. For these experiments, patches were excised into saturating Ca^2+ (3 µM) to ensure maximal KCa3.1 activation. These studies were carried out in the absence of DCEBIO to eliminate the possibility that the inhibition observed was due to competition for the DCEBIO-binding site.\nHEK cells stably expressing KCa3.1 (IK1, SK4), KCa2.3 (SK3), and KCa2.2 (SK2) were generated and cultured as previously described by us ([37], [66–71]).\nHEK cells expressing the channel of interest were plated onto poly-L-lysine-coated glass coverslips 1–2 days prior to patch-clamp analysis. Electrophysiological recordings in the excised, inside-out, and whole-cell patch-clamp configurations were performed as recently described ([14]). For excised patch-clamp recordings, the pipette solution contained (in mM): 140 K-gluconate, 5 KCl, 1 CaCl2, 1 MgCl2, and 10 HEPES. The pH was adjusted to 7.2 with KOH. The bath solution contained (in mM): 145 K-gluconate, 5 KCl, 1.3 MgCl2, 10 HEPES, and 1 EGTA. Sufficient CaCl2 was added to obtain the desired free Ca^2+ concentration at a pH of 7.2 (adjusted with KOH). When recording KCa3.1 channels, ATP (300 µM) was added to the bath to diminish channel rundown ([73]). All recordings were carried out at a voltage of −100 mV, referenced to the extracellular compartment, as is standard. The apparent Ki and Hill coefficient for each CFTR corrector on KCa3.1, KCa2.3, and KCa2.2 were determined during a continuous recording by step-wise addition of increasing concentrations of compound and fitting the resultant relative remaining current to a Hill equation (Prism v. 10.1.0). The zero current level was determined by the addition of a 0 Ca^2+ solution (zero-added Ca^2+ plus 1 mM EGTA) at the end of the experiment. In the case of KCa3.1, TRAM-34, a known inhibitor of KCa3.1 ([45]), was used to confirm expression of the channel. For whole-cell experiments, pipettes contained (in mM): 145 K-gluconate, 10 EGTA, 7.5 CaCl2, 2 MgCl2, 3 mM NaATP, and 10 HEPES. The bath solution contained (in mM): 140 K-gluconate, 5 KCl, 1.0 MgCl2, 10 HEPES, and 2 CaCl2. Current–voltage relationships were determined by stepping from a holding potential of −80 mV to +80 mV in 20 mV increments for 400 ms. […]",
  "note": "Where two headings read alike, the source gives them in different places.",
  "data": [
    {"smiles": "Cc1nn(C)cc1S(=O)(=O)NC(=O)c1ccc(-n2ccc(OCC(C)(C)C(F)(F)F)n2)nc1N1C[C@@H](C)CC1(C)C", "note": "[VX-445, elexacaftor]", "values": [
      {"measurement": "inhibition at 10 µM", "setting": "four experiments, read-out: inhibition of whole-cell KCa3.1 current in the presence of 3.4% albumin", "value": "51 ± 17", "unit": "%"},
      {"measurement": "inhibition at 10 µM", "setting": "seven experiments, read-out: inhibition of whole-cell KCa3.1 current", "value": "58 ± 7", "unit": "%"}
    ]}
  ]
}
